# Source: ChEMBL document CHEMBL1201862, “PubChem BioAssay data set” (2004)
# Active and inactive are the calls of the source. For most assays here, no stated cut-off is given here; in the data, actives have a measured EC50 and inactives only a lower limit.
# Columns and labels:
# [1] = molecular target: T1, Zinc finger protein mex-5 (Caenorhabditis elegans, UniProt Q9XUB2); assay: potency of MEX-5 RNA-binding blockers – biochemical, C. elegans, fluorescence polarization, dose response (AID 1960)
# T1 sequence (Q9XUB2 whole entry): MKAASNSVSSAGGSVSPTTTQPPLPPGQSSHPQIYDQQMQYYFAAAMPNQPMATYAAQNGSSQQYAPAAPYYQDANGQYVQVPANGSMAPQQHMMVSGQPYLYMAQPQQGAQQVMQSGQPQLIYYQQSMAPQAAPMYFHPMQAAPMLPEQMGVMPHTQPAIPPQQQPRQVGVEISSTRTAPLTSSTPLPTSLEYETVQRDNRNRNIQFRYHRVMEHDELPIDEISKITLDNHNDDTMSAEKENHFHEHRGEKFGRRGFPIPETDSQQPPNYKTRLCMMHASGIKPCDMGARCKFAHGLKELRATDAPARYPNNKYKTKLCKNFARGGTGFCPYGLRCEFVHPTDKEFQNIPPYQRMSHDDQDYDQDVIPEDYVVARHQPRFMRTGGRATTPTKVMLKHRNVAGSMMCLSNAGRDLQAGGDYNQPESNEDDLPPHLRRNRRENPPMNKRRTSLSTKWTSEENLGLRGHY
# [2] = molecular target: T2, RNA-binding protein pos-1 (Caenorhabditis elegans, UniProt G5EF15); assay: disruptors of C. elegans POS-1 RNA interaction – biochemical, fluorescence polarization, dose response (AID 1964);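 further: purified POS-1 fused to maltose binding protein made in E. coli; potency of compounds blocking POS-1 binding to fluorescent RNA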
# T2 sequence (G5EF15 whole entry): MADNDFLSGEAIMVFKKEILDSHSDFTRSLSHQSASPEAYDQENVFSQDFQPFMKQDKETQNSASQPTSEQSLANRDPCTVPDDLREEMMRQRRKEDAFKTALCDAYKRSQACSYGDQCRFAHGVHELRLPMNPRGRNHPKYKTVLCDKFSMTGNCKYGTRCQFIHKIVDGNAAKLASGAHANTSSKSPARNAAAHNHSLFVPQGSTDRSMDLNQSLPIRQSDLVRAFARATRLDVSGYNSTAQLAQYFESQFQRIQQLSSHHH
# Paired box protein Pax-8 = Paired box protein Pax-8 (Homo sapiens, UniProt Q06710); assay: PAX8 transcriptional activity inhibition in RMG-I – RMG-I cells, luciferase, cherry-pick, dose response (AID 687027); type: functional, cell-based;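 further: luciferase reporter driven by Pax8 target thyroperoxidase promoter measured by SteadyGlo luminescence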
# [3] = molecular target: T3, Replicative DNA helicase DnaB (Mycobacterium tuberculosis, UniProt P9WMR3); assay: DnaB intein splicing inhibitors, dose response, biochemical, cell-free fluorescence (AID 449749); type: functional
# T3 sequence (P9WMR3 whole entry): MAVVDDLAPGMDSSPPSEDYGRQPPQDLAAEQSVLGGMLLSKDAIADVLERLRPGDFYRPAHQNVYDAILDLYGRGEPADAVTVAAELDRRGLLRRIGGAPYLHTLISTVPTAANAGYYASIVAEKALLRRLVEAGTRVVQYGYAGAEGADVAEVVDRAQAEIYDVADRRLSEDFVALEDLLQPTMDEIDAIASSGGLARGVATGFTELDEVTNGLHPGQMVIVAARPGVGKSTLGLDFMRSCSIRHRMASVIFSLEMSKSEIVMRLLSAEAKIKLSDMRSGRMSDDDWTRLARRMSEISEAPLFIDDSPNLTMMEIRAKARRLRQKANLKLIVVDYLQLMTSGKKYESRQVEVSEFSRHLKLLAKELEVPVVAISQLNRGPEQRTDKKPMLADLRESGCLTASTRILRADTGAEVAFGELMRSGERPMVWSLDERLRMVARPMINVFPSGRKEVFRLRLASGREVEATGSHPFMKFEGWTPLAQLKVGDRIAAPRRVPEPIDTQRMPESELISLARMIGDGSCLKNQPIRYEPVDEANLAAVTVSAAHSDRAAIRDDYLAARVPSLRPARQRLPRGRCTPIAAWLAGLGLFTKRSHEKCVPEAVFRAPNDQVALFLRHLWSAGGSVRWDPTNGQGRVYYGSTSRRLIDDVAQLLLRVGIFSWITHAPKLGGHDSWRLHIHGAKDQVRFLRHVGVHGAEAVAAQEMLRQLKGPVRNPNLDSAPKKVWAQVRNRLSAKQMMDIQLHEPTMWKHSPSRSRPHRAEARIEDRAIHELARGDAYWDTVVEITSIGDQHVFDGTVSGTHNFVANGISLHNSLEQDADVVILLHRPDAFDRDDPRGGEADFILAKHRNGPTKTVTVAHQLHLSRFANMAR
# Protein RecA = molecular target: T4, Protein RecA (Mycobacterium tuberculosis, UniProt P9WHJ3); assay: Fluorescence Cell-Free Homogeneous Dose Retest to Identify Inhibitors of RecA-Intein Splicing Activity. [Related pubchem assays (depositor defined):AID2097, AID2223, AID489010, AID492950]; type: functional
# T4 sequence (P9WHJ3 whole entry): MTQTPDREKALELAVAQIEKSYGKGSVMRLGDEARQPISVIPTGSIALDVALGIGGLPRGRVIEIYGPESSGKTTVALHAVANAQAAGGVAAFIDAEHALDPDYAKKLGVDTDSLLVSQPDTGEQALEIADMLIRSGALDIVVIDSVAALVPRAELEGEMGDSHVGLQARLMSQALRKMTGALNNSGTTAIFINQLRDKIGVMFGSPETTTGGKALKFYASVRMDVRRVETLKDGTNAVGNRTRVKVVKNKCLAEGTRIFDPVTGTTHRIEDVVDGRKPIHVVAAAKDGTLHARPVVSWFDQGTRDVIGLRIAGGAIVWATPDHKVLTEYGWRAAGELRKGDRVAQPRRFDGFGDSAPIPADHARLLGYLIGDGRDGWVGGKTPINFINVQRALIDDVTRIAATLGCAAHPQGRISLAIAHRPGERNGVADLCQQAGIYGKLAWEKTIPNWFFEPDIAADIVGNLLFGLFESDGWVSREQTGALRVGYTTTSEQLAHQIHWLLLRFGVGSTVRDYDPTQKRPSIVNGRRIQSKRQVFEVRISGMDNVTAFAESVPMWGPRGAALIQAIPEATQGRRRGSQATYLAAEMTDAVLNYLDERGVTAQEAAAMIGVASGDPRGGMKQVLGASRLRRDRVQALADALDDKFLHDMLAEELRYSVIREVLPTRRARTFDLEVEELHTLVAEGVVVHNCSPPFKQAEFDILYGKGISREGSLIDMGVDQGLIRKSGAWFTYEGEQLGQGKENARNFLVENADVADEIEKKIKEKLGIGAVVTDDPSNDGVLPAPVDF
# [4] = molecular target: T5, Heat shock factor protein 1 (Mus musculus, UniProt P38532); assay: decrease of HSF1-responsive luciferase luminescence – cell-based, NIH3T3, dose retest, confirmation (AID 2382); type: functional;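 further: NIH3T3 fibroblasts with HSF1-driven luciferase reporter stressed by proteasome inhibitor MG132; luminescence from HSF1-driven luciferase expression after 8 hours of MG132 stress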
# T5 sequence (P38532 whole entry): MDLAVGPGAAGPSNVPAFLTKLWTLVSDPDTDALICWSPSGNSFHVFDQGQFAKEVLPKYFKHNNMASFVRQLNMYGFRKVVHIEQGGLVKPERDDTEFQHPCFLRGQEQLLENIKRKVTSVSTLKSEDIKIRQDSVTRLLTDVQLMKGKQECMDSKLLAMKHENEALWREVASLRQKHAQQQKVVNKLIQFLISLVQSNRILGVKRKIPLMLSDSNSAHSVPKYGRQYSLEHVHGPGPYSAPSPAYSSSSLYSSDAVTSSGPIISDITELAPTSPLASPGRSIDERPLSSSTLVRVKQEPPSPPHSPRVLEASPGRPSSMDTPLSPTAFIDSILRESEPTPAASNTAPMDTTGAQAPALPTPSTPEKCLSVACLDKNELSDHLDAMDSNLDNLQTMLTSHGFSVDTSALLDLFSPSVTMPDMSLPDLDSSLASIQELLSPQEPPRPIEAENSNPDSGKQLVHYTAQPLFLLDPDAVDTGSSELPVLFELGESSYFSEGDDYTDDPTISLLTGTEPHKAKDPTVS
# [5] = molecular target: T6, Corticotropin-releasing factor receptor 2/Corticotropin-releasing factor-binding protein (Homo sapiens, UniProt P24387+Q13324); assay: activators of CRF receptor 2 with binding protein – uHTS hits, confirmation (AID 602473); type: functional; conditions: read-out: EC50_Mean
# T6 sequence (Q13324 whole entry): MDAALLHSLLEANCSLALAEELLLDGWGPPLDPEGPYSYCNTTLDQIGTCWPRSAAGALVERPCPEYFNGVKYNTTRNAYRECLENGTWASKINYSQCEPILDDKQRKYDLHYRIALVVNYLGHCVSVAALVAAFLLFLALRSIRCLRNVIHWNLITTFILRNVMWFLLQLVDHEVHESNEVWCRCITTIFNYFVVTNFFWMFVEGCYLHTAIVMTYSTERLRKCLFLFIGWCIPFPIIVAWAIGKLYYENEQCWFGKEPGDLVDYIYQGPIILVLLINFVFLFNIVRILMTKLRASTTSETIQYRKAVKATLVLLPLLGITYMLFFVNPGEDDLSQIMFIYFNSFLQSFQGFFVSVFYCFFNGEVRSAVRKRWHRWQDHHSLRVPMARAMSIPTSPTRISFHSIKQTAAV
# T6 sequence (P24387 whole entry): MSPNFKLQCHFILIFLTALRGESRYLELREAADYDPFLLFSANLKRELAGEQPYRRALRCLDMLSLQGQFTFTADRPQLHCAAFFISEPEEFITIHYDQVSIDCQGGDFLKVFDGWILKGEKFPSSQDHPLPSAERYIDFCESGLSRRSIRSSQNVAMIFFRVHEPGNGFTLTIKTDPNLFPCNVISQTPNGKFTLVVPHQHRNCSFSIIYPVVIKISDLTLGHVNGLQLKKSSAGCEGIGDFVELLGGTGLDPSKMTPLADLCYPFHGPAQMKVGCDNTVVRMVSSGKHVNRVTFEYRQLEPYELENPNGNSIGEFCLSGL
# [6] = molecular target: T6, Corticotropin-releasing factor receptor 2/Corticotropin-releasing factor-binding protein; assay: Dose Response confirmation of uHTS hits for small molecule antagonists of the CRF-binding protein and CRF-R2 receptor complex.; type: functional; conditions: read-out: IC50_Mean
# [7] = NIH3T3 cell viability loss – ATP luminescence, mouse fibroblasts, counter-screen, dose response (AID 2010); type: functional, cell-based;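 further: cells exposed to compound for about 90 hours before reading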
# [8] = Trypanosoma cruzi growth suppression in host cells – NIH3T3 host cells, beta-gal luminescence, confirmation (AID 2044); type: functional, cell-based;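 further: intracellular parasites grown in NIH/3T3 mouse fibroblasts as host cells; luminescent beta-galactosidase reporter signal from transgenic T. cruzi replicating inside host cells; inhibitors lower the luminescence signal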
# Paired box protein Pax-8, sequence (Q06710 whole entry): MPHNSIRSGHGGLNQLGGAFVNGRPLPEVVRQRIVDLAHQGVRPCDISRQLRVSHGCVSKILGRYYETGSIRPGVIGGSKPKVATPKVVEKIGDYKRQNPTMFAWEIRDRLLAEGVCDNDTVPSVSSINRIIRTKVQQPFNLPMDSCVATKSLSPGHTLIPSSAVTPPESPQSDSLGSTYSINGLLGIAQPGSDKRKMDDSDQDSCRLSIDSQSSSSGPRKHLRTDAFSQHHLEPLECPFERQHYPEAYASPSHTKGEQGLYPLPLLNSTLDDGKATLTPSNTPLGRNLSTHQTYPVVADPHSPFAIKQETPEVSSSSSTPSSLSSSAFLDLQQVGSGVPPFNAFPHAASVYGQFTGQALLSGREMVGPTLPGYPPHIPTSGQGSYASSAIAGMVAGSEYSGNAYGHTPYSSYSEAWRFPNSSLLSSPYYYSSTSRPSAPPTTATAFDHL
smiles,measurement,setting,value
CCCOc1ccc(/C=c2\sc3nc(-c4ccco4)nn3c2=O)cc1OCC,EC50,[1],> 300 µM (not active)
same,EC50,[2],> 300 µM (not active)
C[C@H](CO)N1C[C@H](C)[C@H](CN(C)S(=O)(=O)c2ccc(Cl)cc2)OCCCC[C@H](C)Oc2ccc(NS(=O)(=O)c3ccc(F)cc3)cc2C1=O,AC50,Paired box protein Pax-8,9.43 µM (active)
COC(=O)C1CSc2[nH]c(=O)sc2C1c1ccc(OC)c(OC)c1 (centres undefined),EC50,[1],> 300 µM (not active)
same,EC50,[2],> 300 µM (not active)
COC(=O)c1nnc(NC(=O)c2ccc(C(C)(C)C)cc2)[nH]1,AC50,[3],3.57 µM (active)
same,EC50,Protein RecA,10.1 µM (active)
same,EC50,[4],> 195 µM (not active)
CCN(CC)C(=O)Cn1cc(C(=O)C(=O)N2CCc3ccccc32)c2ccccc21,EC50,[1],> 300 µM (not active)
same,EC50,[2],> 300 µM (not active)
COc1ccc(S(=O)(=O)N(C)C[C@H]2Oc3ccc(NC(=O)Nc4ccc(C(F)(F)F)cc4)cc3C(=O)N([C@H](C)CO)C[C@@H]2C)cc1,AC50,Paired box protein Pax-8,8.69 µM (active)
Cc1noc(C)c1COC(=O)Cc1ccc(Br)cc1,AC50,[3],124 µM (active)
same,EC50,Protein RecA,> 380 µM (inactive)
C#CCNC(=O)C1=C[C@H](c2ccc3c(c2)OCO3)[C@@H](CCCO)[C@H](OCC)O1,EC50,[5],> 53 µM (inactive)
same,IC50,[6],> 47.1 µM (inactive)
CCCCCCCOC(=O)c1ccc(OC(=O)c2cccnc2)cc1,EC50,Protein RecA,> 380 µM (inconclusive)
Cc1ccc2nc(N3C(=O)C(O)=C(C(=O)c4ccc(C)o4)C3c3cccc(O)c3)sc2c1 (centres undefined),EC50,[5],> 53 µM (inactive)
same,IC50,[6],7.83 µM (active)
CCOC(=O)c1c2ccc(OCC(=O)N/N=C/c3ccc(Cl)cc3)cc2n2ccccc12,EC50,[2],> 300 µM (not active)
CCOC(=O)CSc1nnc(NCC(=O)OC(C)C)c(=O)[nH]1,AC50,[3],3.45 µM (active)
same,EC50,Protein RecA,9.44 µM (active)
Cc1cc2c(NS(=O)(=O)c3ccc(F)cc3)cccc2nn1,EC50,[5],> 53 µM (inactive)
same,IC50,[6],> 47.1 µM (inactive)
CN1C(=O)C(=Cc2cn(CC(=O)N3CCCC3)c3ccccc23)C(=O)N(C)C1=O,EC50,[1],> 300 µM (not active)
same,EC50,[2],> 300 µM (not active)
O=c1ccc2cc(S(=O)(=O)NCc3ccccc3)ccc2[nH]1,EC50,[5],> 53 µM (inactive)
same,IC50,[6],> 47.1 µM (inactive)
COc1ccccc1C(=O)NC(CCSC)C(=O)NC1CCCCCC1 (centres undefined),EC50,[5],> 53 µM (inactive)
same,IC50,[6],> 47.1 µM (inactive)
CC(=O)c1ccc(N2CCN(C(=O)CCS(=O)(=O)c3ccc4c(c3)CCN4C(C)=O)CC2)cc1,EC50,[5],> 53 µM (inactive)
same,IC50,[6],> 47.1 µM (inactive)
CCN(CC)C(=O)c1ccc2c(c1[N+](=O)[O-])C(=O)c1ccccc1C2=O,AC50,[3],> 380 µM (inactive)
same,EC50,Protein RecA,> 380 µM (inactive)
CC(=O)N(C)Cc1ccc(C(=O)CCl)cc1,AC50,[3],56.2 µM (active)
same,EC50,[7],3.7 µM (active)
same,EC50,Protein RecA,19.4 µM (active)
same,EC50,[8],2.51 µM (active)
C[C@@H]1CCCCO[C@@H](CN(C)Cc2ccc(Cl)c(Cl)c2)[C@H](C)CN([C@H](C)CO)C(=O)c2cc(NC(=O)Nc3ccccc3)ccc2O1,AC50,Paired box protein Pax-8,12.5 µM (active)
O=C(Nc1ccccc1)c1nc[nH]c1C(=O)NCCN(CCNC(=O)c1[nH]cnc1C(=O)Nc1ccccc1)CCNC(=O)c1[nH]cnc1C(=O)Nc1ccccc1,EC50,[5],> 53 µM (inactive)
same,IC50,[6],> 47.1 µM (inactive)
Cn1c(SCC(=O)c2ccc3c(c2)OCCO3)nnc1C(F)(F)F,EC50,[5],> 53 µM (inactive)
same,IC50,[6],> 47.1 µM (inactive)
CCOc1ccc(C(=O)NNC(=O)CCNC(=O)c2ccco2)cc1OC,EC50,[5],> 53 µM (inactive)
same,IC50,[6],> 47.1 µM (inactive)
